Data from PMC6152277, “Synthesis and Evaluation of New Quinoxaline Derivatives of Dehydroabietic Acid as Potential Antitumor Agents” (Molecules : A Journal of Synthetic Chemistry and Natural …, 2017).

Legend:
[1] = system: human breast cancer cell line (MCF-7); experiment: MTT cytotoxic assay, MCF-7; assay type: cell-based; details: MCF7, 48 h exposure
Method: (§1) All the compounds (1–3, 4a–o) were evaluated for their in vitro cytotoxic activity against three cancer cell lines including human breast cancer cell line (MCF-7), human hepatocarcinoma cell line (SMMC-7721), human cervical carcinoma cell line (HeLa), and a noncancerous human hepatocyte cell line (LO2) using the MTT assay method. An anticancer drug etoposide (VP-16) was co-assayed as the positive control. The results of the test compounds shown as IC50 values (concentration required to inhibit tumor cell proliferation by 50%), are listed in Table 1.
(§2) The in vitro cytotoxic activities of the quinoxaline derivatives of DAA were evaluated against a human breast cancer cell line (MCF-7), human hepatocarcinoma cell line (SMMC-7721), human cervical carcinoma cell line (HeLa) and noncancerous human hepatocyte cells (LO2) via the MTT colorimetric method. Briefly, different tumor cells were grown in DMEM supplemented with 10% fetal bovine serum, penicillin (100 U/mL), and streptomycin (50 μg/mL). Cells were harvested at the log phase of growth and seeded in 96-well plates (100 μL/well at a density of 2 × 10^5 cells/mL). After 24 h of incubation at 37 °C and 5% CO2 to allow for cell attachment, cultures were exposed to various concentrations of the isolated compounds for 48 h. Finally, the MTT solution (2.5 mg/mL in PBS) was added (40 μL/well). Plates were further incubated for 4 h at 37 °C, and the formazan crystals formed were dissolved by adding 150 μL/well of DMSO. Absorption at 570 nm was measured with an ELISA plate reader. The results were expressed as IC50 values with standard deviations, which were defined as the concentrations at which a 50% survival of the cells was discerned. Etoposide (VP-16) was co-assayed as the positive control.

[2] = system: human hepatocarcinoma cell line (SMMC-7721); experiment: MTT cytotoxic assay, SMMC-7721; assay type: cell-based; details: 48 h exposure
Method: as §1, §2

[3] = system: human cervical carcinoma cell line (HeLa); experiment: MTT cytotoxic assay, HeLa; assay type: cell-based; details: 48 h exposure
Method: as §1, §2

[4] = system: noncancerous human hepatocyte cells (LO2); experiment: MTT cytotoxic assay, LO2; assay type: cell-based; details: 48 h exposure, noncancerous hepatocytes
Method: as §1, §2

[5] = system: three cancer cell lines (MCF-7, SMMC-7721, HeLa); experiment: MTT cytotoxic assay, summary statements over the three cancer cell lines; assay type: cell-based, human; details: for IC50: Homo sapiens, at least one of MCF-7, SMMC-7721, HeLa, strong cytotoxicity, read-out: IC50 against at least one cancer cell line; for cytotoxic activity against the three cancer cell lines (in words): MCF-7, SMMC-7721, HeLa
Method: as §1, §2

Compound | IC50 [1] | IC50 [2] | IC50 [3] | IC50 [4] | IC50 [5] | cytotoxic activity against the three cancer cell lines (in words) [5] | cytotoxicity to HeLa and/or SMMC-7721 cell lines (in words) [5]
COC(=O)[C@]1(C)CCC[C@]2(C)c3cc(Br)c4nc(CN5CCNCC5)c(CN5CCNCC5)nc4c3CCC12 (stereo partly shown) [Compound 4i, Methyl 12-bromo-2′,3′-bis(piperazin-1-ylmethyl)-13,14-pyrazinyldeisopropyl-dehydroabietate] | 5.89 ± 0.56 µM | 4.32 ± 0.64 µM | 5.05 ± 0.72 µM | 21.9 ± 2.7 µM | < 10 µM |  | 
COC(=O)[C@]1(C)CCC[C@]2(C)c3cc(Br)c4nc(CN5CCCCC5)c(CN5CCCCC5)nc4c3CCC12 (stereo partly shown) [Compound 4f, Methyl 12-bromo-2′,3′-bis(piperidin-1-ylmethyl)-13,14-pyrazinyldeisopropyl-dehydroabietate] | 8.95 ± 0.63 µM | 7.71 ± 0.82 µM | 5.98 ± 0.37 µM | 42.2 ± 2.78 µM | < 10 µM |  | 
COC(=O)[C@]1(C)CCC[C@]2(C)c3cc(Br)c4nc(CN5CCCC5)c(CN5CCCC5)nc4c3CCC12 (stereo partly shown) [Compound 4e, Methyl 12-bromo-2′,3′-bis(pyrrolidin-1-ylmethyl)-13,14-pyrazinyldeisopropyl-dehydroabietate] | 20.4 ± 1.51 µM | 18.6 ± 2.37 µM | 12.8 ± 1.26 µM | > 50 µM |  | moderate cytotoxic activity | 
COC(=O)[C@]1(C)CCC[C@]2(C)c3cc(Br)c4nc(CN5CCCCCC5)c(CN5CCCCCC5)nc4c3CCC12 (stereo partly shown) [Compound 4g, Methyl 2′,3′-bis(azepan-1-ylmethyl)-12-bromo-13,14-pyrazinyldeisopropyl-dehydroabietate] | > 50 µM | 27.9 ± 2.91 µM | 32 ± 4.21 µM | > 50 µM |  | weak activity | 
COC(=O)[C@]1(C)CCC[C@]2(C)c3cc(Br)c4nc(CN5CCN(C)CC5)c(CN5CCN(C)CC5)nc4c3CCC12 (stereo partly shown) [Compound 4j, Methyl 12-bromo-2′,3′-bis((4-methylpiperazin-1-yl)methyl)-13,14-pyrazinyl-deisopropyl-dehydroabietate] | 12.2 ± 0.75 µM | 8.03 ± 0.7 µM | 6.62 ± 0.59 µM | 29.5 ± 3.61 µM | < 10 µM |  | 
COC(=O)[C@]1(C)CCC[C@]2(C)c3cc(Br)c4nc(CBr)c(CBr)nc4c3CCC12 (stereo partly shown) [Compound 3] | > 50 µM | 45.8 ± 5.28 µM | 37.7 ± 3.75 µM | > 50 µM |  |  | mild cytotoxicity
COC(=O)[C@]1(C)CCC[C@]2(C)c3cc(Br)c(N)c(N)c3CCC12 (stereo partly shown) [Compound 2] | > 50 µM | > 50 µM | 43.3 ± 3.26 µM | > 50 µM |  |  | mild cytotoxicity
COC(=O)[C@]1(C)CCC[C@]2(C)c3cc(Br)c4nc(Cn5ccnc5)c(Cn5ccnc5)nc4c3CCC12 (stereo partly shown) [Compound 4l, Methyl 12-bromo-2′,3′-bis((1H-imidazol-1-yl)methyl)-13,14-pyrazinyl-deisopropyl-dehydroabietate] | 22.8 ± 3.21 µM | 15.3 ± 2.06 µM | 12.7 ± 1.35 µM | > 50 µM |  | moderate cytotoxic activity | 
COC(=O)[C@]1(C)CCC[C@]2(C)c3cc(Br)c4nc(Cn5ccnn5)c(Cn5ccnn5)nc4c3CCC12 (stereo partly shown) [Compound 4m, Methyl 12-bromo-2′,3′-bis((1H-1,2,3-triazol-1-yl)methyl)-13,14-pyrazinyl-deisopropyl-dehydroabietate] | 3.73 ± 0.62 µM | 4.66 ± 0.42 µM | 2.18 ± 0.37 µM | 18.4 ± 1.73 µM | < 10 µM |  | 
CCN1CCN(Cc2nc3c(Br)cc4c(c3nc2CN2CCN(CC)CC2)CCC2[C@](C)(C(=O)OC)CCC[C@]42C)CC1 (stereo partly shown) [Compound 4k, Methyl 12-bromo-2′,3′-bis((4-ethylpiperazin-1-yl)methyl)-13,14-pyrazinyl-deisopropyl-dehydroabietate] | 38.7 ± 2.87 µM | 26.4 ± 3.73 µM | 13.5 ± 2.21 µM | > 50 µM |  | moderate cytotoxic activity | 
COc1cc([C@@H]2c3cc4c(cc3[C@@H](O[C@@H]3O[C@@H]5CO[C@@H](C)O[C@H]5[C@H](O)[C@H]3O)[C@H]3COC(=O)[C@H]23)OCO4)cc(OC)c1O [Etoposide, reference compound] | 0.73 ± 0.07 µM | 0.69 ± 0.18 µM | 0.87 ± 0.16 µM | 8.89 ± 0.38 µM |  |  | 
CCCN(CCC)Cc1nc2c(Br)cc3c(c2nc1CN(CCC)CCC)CCC1[C@](C)(C(=O)OC)CCC[C@]31C (stereo partly shown) [Compound 4c, Methyl 12-bromo-2′,3′-bis((dipropylamino)methyl)-13,14-pyrazinyldeisopropyl-dehydroabietate] | 21 ± 1.27 µM | 11 ± 0.58 µM | 8.67 ± 0.65 µM | > 50 µM |  |  | 
COC(=O)[C@]1(C)CCC[C@]2(C)c3cc(Br)c4nc(Cn5ncnn5)c(Cn5ncnn5)nc4c3CCC12 (stereo partly shown) [Compound 4o, Methyl 12-bromo-2′, 3′-bis((2H-tetrazol-2-yl)methyl)-13,14-pyrazinyl-deisopropyl-dehydroabietate] | 24.4 ± 1.69 µM | 16.9 ± 1.95 µM | 20.5 ± 3.12 µM | > 50 µM |  | moderate cytotoxic activity | 
CCCCN(CCCC)Cc1nc2c(Br)cc3c(c2nc1CN(CCCC)CCCC)CCC1[C@](C)(C(=O)OC)CCC[C@]31C (stereo partly shown) [Compound 4d, Methyl 12-bromo-2′,3′-bis((dibutylamino)methyl)-13,14-pyrazinyldeisopropyl-dehydroabietate] | 28.1 ± 0.92 µM | 32.7 ± 2.69 µM | 25.3 ± 3.01 µM | > 50 µM |  | weak activity | 
COC(=O)[C@]1(C)CCC[C@]2(C)c3cc(Br)c4nc(Cn5cnnn5)c(Cn5cnnn5)nc4c3CCC12 (stereo partly shown) [Compound 4n, Methyl 12-bromo-2′,3′-bis((1H-tetrazol-1-yl)methyl)-13,14-pyrazinyl-deisopropyl-dehydroabietate] | 15.8 ± 0.81 µM | 10.9 ± 1.68 µM | 13.3 ± 2.71 µM | > 50 µM |  | moderate cytotoxic activity | 
CC(C)c1ccc2c(c1)CC[C@H]1[C@](C)(C(=O)O)CCC[C@]21C [Compound 1, Dehydroabietic acid] | > 50 µM | > 50 µM | > 50 µM | > 50 µM |  |  | 
COC(=O)[C@]1(C)CCC[C@]2(C)c3cc(Br)c4nc(CN(C)C)c(CN(C)C)nc4c3CCC12 (stereo partly shown) [Compound 4a, Methyl 12-bromo-2′,3′-bis((dimethylamino)methyl)-13,14-pyrazinyldeisopropyl-dehydroabietate] | 2.36 ± 0.29 µM | 1.65 ± 0.22 µM | 2.08 ± 0.43 µM | 15.7 ± 0.65 µM |  |  | 
COC(=O)[C@]1(C)CCC[C@]2(C)c3cc(Br)c4nc(CN5CCOCC5)c(CN5CCOCC5)nc4c3CCC12 (stereo partly shown) [Compound 4h, Methyl 12-bromo-2′,3′-bis(morpholinomethyl)-13,14-pyrazinyldeisopropyl-dehydroabietate] | 12.3 ± 1.03 µM | 16.3 ± 1.85 µM | 9.67 ± 1.13 µM | 36.6 ± 3.12 µM |  |  | 
